These results are taken from patent EP4643856A1, “CARBAZOLE DERIVATIVES USED AS NEUROPROTECTANTS AND IN THE TREATMENT OF DISORDERS WITH REDUCED NAD METABOLISM” (Centre National de la Recherche Scientifique, priority 2024, dated 2025).

Data set [1] relates to HeLa cells. Kind of data set: FK866-induced cytotoxicity, viability assay (prestoblue assay). The note with it: 3.5 nM FK866 in the presence of 6 µM compound, 72 hours. In kind it is cell-based. Here is the method: (§1) This clearly indicates an activation of the pathways leading to NADH production. • Figure 3 represents the effect of compounds I-a, I-f, I-m, I-n, I-q and the comparative example on the cytotoxicity mediated by NAMPT inhibitor FK866. HeLa cells were seeded in microplates and incubated with 3.5 nM FK866 without (black) or in the presence of 6 µM of I-a and different analogues (grey), as indicated, for 72 hours. A viability assay (prestoblue assay) was then conducted. […] Behavioral assessments were performed on 5-week-old male Sprague-Dawley rats before (basal values) and at days 4, 7, 11 and 14 after the beginning of the drug injections (Compound I-a 50 mg/kg, paclitaxel (PTX) 4 mg/kg, Compound I-a 50 mg/kg + PTX 4 mg/kg). Control animals (Vehicle) received vehicle injections. The results are presented by mean ± standard deviation (n = 6 per group). Tactile nociceptive thresholds were assessed using an electronic von Frey test (J. Ferrier, F. Marchand, D. Balayssac, Assessment of mechanical allodynia in rats using the electronic von frey test, BIO-Protoc., 6 (2016), 10.21769/BioProtoc.1933). Rats were placed individually in plastic compartments on an elevated wire floor and left for habituation for 15 min before each experiment. […] The maximum force applied (expressed in grams) to induce paw withdrawal was recorded automatically.
The compound FK866 is known to be a potent selective inhibitor of the NAMPT enzyme. Administration of FK866 in cultured cells results in depletion of intracellular NAD levels and subsequent cell death. The effect of compound I-a and other compounds of the series on FK866-induced cytotoxicity in HeLa cells was assayed.
HeLa cells were seeded in microplates and incubated with 3.5 nM FK866 without (black) or in the presence of 6 µM of I-a and different analogues (grey), as indicated, for 72 hours. A viability assay (prestoblue assay) was then conducted.

Data set [2] concerns rat model of paclitaxel-induced neuropathy. Kind of data set: Rat model of paclitaxel-induced neuropathy, electronic von Frey test. It counts as in vivo. As to conditions: days 4, 7, 11 and 14. Here is the method:
as §1

Data set [3] has as its system HeLa cells. The experiment in a line: Kinetics of NADH autofluorescence (endogenous NADH production) by confocal microscopy. It counts as cell-based. As to conditions: I-a (5 µM) or I-s (0.5 µM), 25-minute analysis, in comparison with controls.
Another data set concerns the target NAMPT (Homo sapiens, UniProt P43490). Kind of data set: NAMPT activation in vitro, biochemical assay.

Entries after “also recorded” stand apart in the source; their conditions may differ.

Chain of NAMPT (P43490 whole entry, species assumed): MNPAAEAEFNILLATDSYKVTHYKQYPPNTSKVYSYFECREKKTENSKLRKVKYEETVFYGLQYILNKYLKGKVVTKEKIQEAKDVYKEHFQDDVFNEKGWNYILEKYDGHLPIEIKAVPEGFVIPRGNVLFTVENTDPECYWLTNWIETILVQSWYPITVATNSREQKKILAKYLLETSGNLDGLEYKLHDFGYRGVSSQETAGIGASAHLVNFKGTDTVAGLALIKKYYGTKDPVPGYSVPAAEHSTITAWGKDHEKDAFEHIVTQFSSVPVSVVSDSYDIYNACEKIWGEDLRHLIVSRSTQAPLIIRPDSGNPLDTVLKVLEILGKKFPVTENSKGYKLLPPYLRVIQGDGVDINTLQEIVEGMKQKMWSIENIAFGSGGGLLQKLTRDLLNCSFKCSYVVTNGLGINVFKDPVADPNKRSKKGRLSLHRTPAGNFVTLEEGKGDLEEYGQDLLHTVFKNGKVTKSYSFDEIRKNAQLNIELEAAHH

As to `COc1cccc(NCC(F)Cn2c3ccc(Cl)cc3c3c(C)c(-n4cccc4)cc(C)c32)c1` (centres unmarked) [Comparative example, N-[3-(6-chloro-1,4-dimethyl-3-pyrrol-1-yl-carbazol-9-yl)-2-fluoro-propyl]-3-methoxy-aniline, reference compound], the “effect on FK866-induced cell death” value in the data set with HeLa cells [1] is given as “does not reduce FK866-induced cell death”.

On to `Cc1cc(-n2cccc2)c(C)c2c1[nH]c1ccc(Cl)cc12` [I-a, 6-chloro-1,4-dimethyl-3-pyrrol-1-yl-9H-carbazole], for which the “tactile sensitivity (tactile nociceptive thresholds, von Frey)” value in data set [2] (Compound I-a 50 mg/kg + PTX 4 mg/kg, force in grams, n = 6 per group) is given as “prevents the hypersensitivity induced by PTX”. Also, the “NADH production (NADH autofluorescence)” value in the data set on HeLa cells [3] is reported as “dose-dependent increase in NADH production”. Besides, the NAMPT activation entry on NAMPT is reported as “activates NAMPT in vitro”. Also, the “effect on FK866-induced cell death” value in the data set with HeLa cells [1] is recorded as “significantly reduced cell death”.

Regarding `Cc1cc(-n2cccc2)c(C)c2c1[nH]c1ccc(Br)cc12` [I-f], the “effect on FK866-induced cell death” value in the data set with HeLa cells [1] is listed as “can relieve the cytotoxicity of the NAMPT inhibitor FK866; also recorded: reduced cell death”.

Consider `Cc1cc(-n2cccc2)c(C)c2c1[nH]c1ccc(O)cc12` [I-m], for which the “effect on FK866-induced cell death” value in the data set on HeLa cells [1] is recorded as “no detectable protective effect”.

For `CCOC(=O)Oc1ccc2[nH]c3c(C)cc(-n4cccc4)c(C)c3c2c1` [I-n], in the data set with HeLa cells [1], the “effect on FK866-induced cell death” value is listed as “significantly reduced cell death”.

On to `CCc1cccc2c1[nH]c1c(C)cc(-n3cccc3)c(C)c12` [I-q], for which, in the data set with HeLa cells [1], the “effect on FK866-induced cell death” value is on record as “significantly reduced cell death”.

For `Cc1cc(-n2ccc(CO)c2)c(C)c2c1[nH]c1ccc(Cl)cc12` [I-s], in the data set on HeLa cells [3], the “NADH production (NADH autofluorescence)” value is given as “dose-dependent increase in NADH production”.

In the case of `CC(=O)O[C@H]1C(=O)[C@@]2(C)[C@H]([C@H](OC(=O)c3ccccc3)[C@]3(O)C[C@H](OC(=O)[C@H](O)[C@@H](NC(=O)c4ccccc4)c4ccccc4)C(C)=C1C3(C)C)[C@]1(OC(C)=O)CO[C@@H]1C[C@@H]2O` [PTX, paclitaxel, reference compound], in data set [2] (PTX 4 mg/kg alone, compared with basal value at day 0), the “tactile sensitivity (tactile nociceptive thresholds, von Frey)” value is “progressively induce a tactile hypersensitivity; also recorded: developed progressively tactile hypersensitivity”.
